Measurements from patent US12295937B2, “Psychoactive medicines and their use for treating psychiatric and neurological conditions and disorders” (Transcend Therapeutics, Inc., priority 2021, dated 2025).

Tests used:
[1] = Rat Forced Swim Test (FST); assay type: in vivo
Excerpt: The Forced Swim Test (FST) is a classic, and the most used preclinical behavioral assay to screen compounds with antidepressant-like activity and has high predictive and face validity (Porsolt et al. (1977) Nature 266:730; Borsini and Meli (1988) Psychopharmacology 94:147). The premise of the FST is that when rats are placed into a cylinder filled with water, they will initially try to escape, but over time will become immobile. This increased immobility reflects behavioral despair, modeling a depressive-like state.
Forced Swim Test (EST): In the FST trial, rats were placed in a circular plexiglass container filled with water, with no means of escape. Water temperature was maintained at 22-25° C. and changed for every animal. After an acclimation period, rats were timed for inactivity (failure to struggle), activity, swim time and climbing time. Day 1 consisted of a 15 min acclimation trial, and Day 2 (24 h later) consisted of the 5 min test. A time sampling procedure was employed where animals were observed every 5 sec and scored for immobility, swimming, or climbing. Fluoxetine (10 mg/kg, IP, Sigma Aldrich) or 0.9% sterile saline vehicle (vehicle 3× group) were administered 23.5, 5, and 1 h before testing in the FST. […] The experimenter was blinded to treatment.
Forced Swim Test: In the FST trial, rats were placed in a circular plexiglass container filled with water, with no means of escape. Water temperature was maintained at 22-25° C. and changed for every animal. After an acclimation period, rats were timed for inactivity (failure to struggle), activity, swim time and climbing time. Day 1 consisted of a 15 min acclimation trial, and Day 2 (24 h later) consisted of the 5 min test. A time sampling procedure was employed where animals were observed every 5 sec and scored for immobility, swimming, or climbing. Fluoxetine (10 mg/kg, IP, Sigma Aldrich) or 0.9% sterile saline vehicle (vehicle 3× group) were administered 23.5, 5, and 1 h before testing in the FST. 2C-B (2.5, 10, or 20 mg/kg, IP, Cayman Chemical) or 0.9% saline vehicle (vehicle 1× group) were administered 30 min prior to FST testing. The experimenter was blinded to treatment.
Drug Treatment: Fluoxetine (10 mg/kg, IP, Sigma Aldrich) or 0.9% sterile saline vehicle were administered 23.5, 5, and 1 h before testing in the FST. […] Control animals received fluoxetine alone, methylone alone, or saline vehicle.
Forced Swim Test: In the FST trial, rats were placed in a circular plexiglass container filled with water, with no means of escape. Water temperature was maintained at 22-25° C. and changed for every animal. After an acclimation period, rats were timed for inactivity (failure to struggle), activity, swim time and climbing time. The experimenter and scorer were blind to treatment group. Day 1 consisted of a 15 min acclimation trial, and Day 2 (24 h later) consisted of the 5 min test. A time sampling procedure was employed where animals were observed every 5 sec and scored for immobility, swimming, or climbing.
The FST was performed and scored by an experimenter blind to treatment group according to standard protocols and based on a “modified FST” procedure (Slattery and Cryan (2012) Nat Protoc, 7:1009). Briefly, rats were placed in a circular plexiglass container (29.2 cm diameter, 49.5 cm height) filled with water to a depth of 30 cm so rats could not support themselves by touching the bottom of the tank. Water was maintained at 22-25° C. and was changed for every animal. Day 1 (Training) consisted of a 15 min acclimation trial, and Day 2 (Testing, 24 h later) consisted of the 5 min test. A time sampling procedure was employed where animals were observed every 5 seconds for the duration of the test session (60 counts or 5 minutes) and scored for immobility (defined as the failure to struggle), swimming (defined as a circular movement around the tank), or climbing (defined as an upwards escape behavior). […]

[2] = Mouse fear extinction paradigm (PTSD model); assay type: in vivo; details: 5 mg/kg IP, day 2
Excerpt: (FIG. 9A) Schematic of experimental design. A single CS-US (tone-shock) pairing on day 1 was followed by 6 CS presentations in a novel context (context B). […] On day 3, the time spent freezing to the CS was quantified. […] (FIG. 9C) No locomotor changes were observed on day 3 (t(26)=1.073, p>0.05). Data are mcan+/−SEM.
FIGS. 10A-10B: MBDB improves fear extinction in a PTSD mouse model. A single CS-US (tone-shock) pairing on day 1 was followed by 6 conditioned stimulus (CS) presentations in a novel context (context B). MBDB or saline vehicle was injected 30 min prior to extinction training on day 2. The time spent freezing to the CS was quantified on day 2. […] Data are mean+/−SEM. N=10 for MBDB group (5 mg/kg, IP) and N=16 for saline control group. **p<0.01 vs. vehicle control group.
Effective PTSD treatments facilitate the disassociation between a traumatic memory and the patient's fear response, making cues for the traumatic memory evoke less of a fear response. This is modeled in the mouse fear extinction paradigm (see FIG. 9A) which takes place over 3 days. […] On day 3 (extinction recall), the mice are “asked” if that tone (CS) still elicits a fearful response, as measured by the time spent freezing when the tone is presented. […]

[3] = Open field test (OFT); assay type: in vivo, rat; details: 0.5-30 mg/kg IP, 30 minutes before 30-min test
Method: Method: Consecutive beam breaks and/or video-tracking of time spent in the center versus periphery of the open field are measured. Also measured are parameters such as distance traveled and ambulatory activity (horizontal and vertical) for the duration of the test session.
The open field test (OFT) capitalizes on a rodent's innate fear of open spaces to assess anxiety-like behavior. More time spent in the center of an open field reflects an anxiolytic (anti-anxiety) effect.
Locomotor activity was also measured in the OFT.
To investigate whether MBDB has an anti-anxiety (anxiolytic) effect, rats were dosed with MBDB (0.5-30 mg/kg, IP) or vehicle (saline) and 30-minutes later were tested in the open field for 30 minutes. This anxiety test capitalizes on a rodents' innate fear of wide-open spaces and propensity to hug the walls when placed into the open field. Therefore, a drug that increases the time spent in the center of the open field has anxiolytic activity and predicts utility for treating anxiety in humans.

[4] = tested on: 5-HT/5-HIAA uptake sites; details: (±)-MBDB·HCl 25 mg/kg IP every 12 hours for 4 days; cited from earlier work
[5] = Reserpine-induced fibromyalgia model, vonFrey test; assay type: in vivo, rat; details: 2C-B 10 and 20 mg/kg; 60-min post-injection
Method: In this Example, male Sprague Dawley rats are tested in a behavioral model of FMA based on the protocol from Nakagura et al. (2009) Pain 146:26. This model uses three daily doses of reserpine (1 mg/kg, SC) or 0.5% acetic acid vehicle to reduce pain thresholds (i.e., increase pain perception) in the Von Frey Test (vFT, procedure outlined below).
Von Frey Test (vFT) procedure: Increasing pain thresholds in this test are consistent with a reduction in pain perception. Prior to the start of dosing, rats are tested for their baseline mechanical pain threshold. For von Frey measurements, animals are placed into wire bottom cubicles with opaque Plexiglas walls, allowing access to the underside of their paws. Animals are habituated to this environment for at least 30 minutes before the start of the von Frey filament application. Static allodynia is measured using Semmes-Weinstein von Frey filaments (Stoelting, Wood Dale, IL). Mechanical allodynia is tested by touching the plantar surface of the animals' left and right hind paws with von Frey filaments which deliver a calibrated amount of force. Each von Frey filament is presented perpendicularly to the plantar surface for approximately 6 seconds of constant application in either ascending or descending strength in a modified up-and-down method (Chaplan et al. (1994) J Neurosci. Meth. 53:55). Stimulation is presented at intervals of several seconds, allowing for apparent resolution of any behavioral responses to previous stimuli. A positive response is noted if the paw is sharply withdrawn. Flinching immediately upon removal of the hair is also considered a positive response. Ambulation is considered an ambiguous response, and, in such cases, the stimulus is repeated.
VonFrey measurements: Animals were placed into wire bottom cubicles with opaque Plexiglas walls, allowing access to the underside of their paws. […] Static allodynia was measured using Semmes-Weinstein von Frey filaments (Stoelting, Wood Dale, IL). […] The average hindpaw thresholds were determined 60-min post-injection. […]

[6] = Cisplatin chemotherapy-induced peripheral neuropathy (CIPN) model, VonFrey test; assay type: in vivo, mouse
Method: Methods: Male C57Bl/6 mice aged 12-16 weeks were used. Cisplatin (2.5 mg/kg) or vehicle was administered on days 1-5 and 11-15.
Vehicle, sub-chronic 2C-B (5 mg/kg once daily days 17-23) or acute 2C-B (20 mg/kg once on day 17) was then administered IP (N=16-18/group). VonFrey testing took place on day 17 (30 min post-dose) and days 21 and 24 (pre-dose) to monitor the effects of 2C-B in cisplatin treated animals, compared with animals receiving cisplatin+vehicle or vehicle+vehicle.
For von Frey measurements, animals were placed into wire bottom cubicles with opaque Plexiglas walls, allowing access to the underside of their paws. Animals were habituated to this environment for at least 30 minutes before the start of the von Frey filament application. Static allodynia was measured using Semmes-Weinstein von Frey filaments (Stoelting, Wood Dale, IL). Mechanical allodynia was tested by touching the plantar surface of the animals' right and left hind paws with von Frey filaments which deliver a calibrated amount of force (0.07, 0.16, 0.4, 0.6. 1.0, 2.0, 4.0, 6.0 g). Each von Frey filament was presented perpendicularly to the plantar surface for approximately 6 seconds of constant application in either ascending or descending strength in a modified up-and-down method (Chaplan et al. (1994) J Neurosci. Meth. 53:55). […]

[7] = previous reports (Hibicke 2020; Yang 2013; Tizabi 2012); cited from earlier work
[8] = target: Human serotonin 5HT2B receptor (Homo sapiens, UniProt P41595); assay: Competitive radioligand binding to 5HT2B receptor membranes
Method: Human serotonin 5HT2B receptor membrane preparations were divided into aliquots. On the day of the assay, membranes were diluted at 1:200 in incubation buffer. […] To each well was added 150 μL membrane preparation, 50 μL test compound, non-specific compound, or buffer alone, as well as 50 μL radioligand. The plate was incubated at 35° C. for 90 minutes with gentle agitation. […] For each concentration of drug, non-specific binding was subtracted from total binding to give specific binding. […] Ki was subsequently calculated using the ChengPrusoff equation.

Sequence of Human serotonin 5HT2B receptor (P41595 whole entry): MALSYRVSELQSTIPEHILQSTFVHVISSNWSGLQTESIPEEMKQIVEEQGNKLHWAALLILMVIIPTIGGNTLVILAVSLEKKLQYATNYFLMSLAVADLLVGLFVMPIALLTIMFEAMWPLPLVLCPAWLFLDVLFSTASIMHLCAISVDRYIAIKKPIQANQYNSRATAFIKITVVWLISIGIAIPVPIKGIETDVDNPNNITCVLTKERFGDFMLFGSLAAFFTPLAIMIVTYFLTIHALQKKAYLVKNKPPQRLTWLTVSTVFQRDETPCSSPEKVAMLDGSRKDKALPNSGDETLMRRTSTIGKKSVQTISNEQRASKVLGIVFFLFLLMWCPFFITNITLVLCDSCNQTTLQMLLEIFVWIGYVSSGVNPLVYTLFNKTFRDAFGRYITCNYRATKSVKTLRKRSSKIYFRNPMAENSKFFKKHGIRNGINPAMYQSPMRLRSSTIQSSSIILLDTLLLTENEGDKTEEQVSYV

Structure (SMILES): CCC(Cc1ccc2c(c1)OCO2)NC (racemic) [MBDB, N-methyl-1-(1,3-benzodioxol-5-yl)-2-aminobutane]
- Immobility ([1]; 5-30 mg/kg IP, 30 min before test): significantly reduced immobility
- Extinction acquisition [2]: improved extinction acquisition on the first trial of extinction training on day 2
- Increase in time spent in the center vs. control [3]: ~40%
- Serotonergic terminals in cortex and hippocampus destroyed [4]: 55-60%

Structure (SMILES): CNCC[C@H](Oc1cccc2ccccc12)c1cccs1 [Duloxetine, reference compound]
- Animals with maximal (complete) reversal of reserpine-induced pain sensitivity [5]: 44%

Structure (SMILES): COc1cc(CCN)c(OC)cc1Br [2C-B, 4-Bromo-2,5-dimethoxyphenethylamine]
- Climbing behavior ([1]; doses as worded): Climbing was significantly decreased only in the high-dose group
- Swimming behavior ([1]; doses as worded): significant increase in swimming
- Animals with maximal (complete) reversal of reserpine-induced pain sensitivity [5]: 100%
- Effect of repeated doses ([6]; 5 mg/kg once daily days 17-23): sustained beneficial effect
- Pain thresholds in cisplatin-treated animals ([6]; single dose 5 or 20 mg/kg IP, day 17): Pain thresholds were significantly increased within 30 min of a single dose

Structure (SMILES): CCN(CC)C(=O)[C@@H]1C=C2c3cccc4[nH]cc(c34)C[C@H]2N(C)C1 [LSD, lysergic acid-N,N-diethylamide]
- Reduction in immobility in the FST [7]: 38%

Structure (SMILES): CNCCC(Oc1ccc(C(F)(F)F)cc1)c1ccccc1 (stereo not shown) [fluoxetine, reference compound]
- Swimming behavior ([1]; doses as worded): significantly increased swimming behavior

Structure (SMILES): CC(N)Cc1ccc2c(c1)OCO2 (stereo not shown) [MDA, reference compound]
- Times greater affinity for the 5HT2B receptor compared with methylone [8]: 37 times
